# The source made the active and inactive calls. The calls are words filed in the database; no cut-off is given here.
# Assays:
# [1] = test system: RAW264.7; assay: Inhibition of NF-kappaB activation in LPS-induced mouse RAW264.7 cells assessed as inhibition of IkappaBalpha phosphorylation by measuring reduction in p-IkappaBalpha/IkappaBalpha expression at 0.5 to 2 uM by Western blot analysis; assay type: cell-based; details: dose 0.5-2 µM
# [2] = test system: RAW264.7; assay: Inhibition of NF-kappaB activation in LPS-induced mouse RAW264.7 cells assessed as inhibition of p65 phosphorylation by measuring reduction in p-p65/p65 expression at 0.5 to 2 uM by Western blot analysis; assay type: cell-based; details: dose 0.5-2 µM
# [3] = test system: RAW264.7; assay: Effect on p65 total protein expression in LPS-induced mouse RAW264.7 cells at 0.5 to 2 uM by Western blot analysis; assay type: functional, cell-based; details: dose 0.5-2 µM
# [4] = test system: Mus musculus; assay: Antiinflammatory activity in carrageenan-induced Kunming mouse model of paw edema assessed as edema inhibition at 1 mg/kg, ip pretreated for 1 hr followed by carrageenan administration and measured after 3 hrs relative to control; assay type: functional; details: time 4 hrs
# [5] = test system: RAW264.7; assay: Antioxidant activity in LPS-induced mouse RAW264.7 cells assessed as upregulation of HO-1 protein expression incubated for 24 hrs by Western blot analysis; assay type: functional, cell-based; details: dose 0.5-2 µM
# [6] = test system: RAW264.7; assay: Antiinflammatory activity in LPS-induced mouse RAW264.7 cells assessed as reduction in TNF-alpha level incubated for 24 hrs by ELISA; assay type: functional, cell-based
# [7] = test system: RAW264.7; assay: Inhibition of NF-kappaB activation in LPS-induced mouse RAW264.7 cells assessed as reduction in IkappaBalpha degradation at 0.5 to 2 uM by Western blot analysis; assay type: cell-based; details: dose 0.5-2 µM
# [8] = test system: Mus musculus; assay: Antioxidant activity in ip dosed carrageenan-induced Kunming mouse model of paw edema assessed as increase in HO-1 protein expression in paw tissue pretreated for 1 hr followed by carrageenan administration and measured after 5 hrs by Western blot analysis; assay type: functional, organism-based; details: dose 1-30 mg/kg, time 6.0 hrs
# [9] = test system: RAW264.7; assay: Antioxidant activity in H2O2-stimulated mouse RAW264.7 cells assessed as protection against cell damage at 2 uM pretreated for 30 mins followed by H2O2 stimulation and measured after 4 hrs by MTT assay relative to control; assay type: functional; details: time 4.5 hrs
# [10] = Cytotoxicity against mouse RAW264.7 cells assessed as cell viability at 2 to 10 uM measured after 24 hrs; assay type: toxicity, cell-based; details: dose 2-10 µM, read-out: Activity
# [11] = test system: Mus musculus; assay: Antiinflammatory activity in carrageenan-induced Kunming mouse model of paw edema assessed as paw volume at 1 mg/kg, ip pretreated for 1 hr followed by carrageenan administration and measured after 3 hrs by digital plethysmometer (reference value: 0.377 +/- 0.018 mL); assay type: functional; details: time 4 hrs
# [12] = test system: Mus musculus; assay: Antiinflammatory activity in carrageenan-induced Kunming mouse model of paw edema assessed as edema inhibition at 1 mg/kg, ip pretreated for 1 hr followed by carrageenan administration and measured after 1 hr relative to control; assay type: functional; details: time 2 hrs
# [13] = test system: RAW264.7; assay: Inhibition of ROS burst in rotenone-stimulated mouse RAW264.7 cells assessed as reduction in ROS level at 1 uM pretreated for 30 mins followed by rotenone addition and measured after 4 hrs by DCFH-DA staining based flow cytometry analysis relative to control; assay type: functional; details: time 4.5 hrs
# [14] = test system: Mus musculus; assay: Antiinflammatory activity in carrageenan-induced Kunming mouse model of paw edema assessed as edema inhibition at 10 mg/kg, ip pretreated for 1 hr followed by carrageenan administration and measured after 5 hrs relative to control; assay type: functional; details: time 6 hrs
# [15] = test system: RAW264.7; assay: Inhibition of ROS burst in rotenone-stimulated mouse RAW264.7 cells assessed as reduction in ROS level at 0.5 to 2 uM pretreated for 30 mins followed by rotenone addition and measured after 4 hrs by DCFH-DA staining based flow cytometry analysis; assay type: functional, cell-based; details: dose 0.5-2 µM, time 4.5 hrs
# [16] = test system: RAW264.7; assay: Antiinflammatory activity in LPS-induced mouse RAW264.7 cells assessed as inhibition of iNOS protein expression at around 2 uM incubated for 24 hrs by Western blot analysis relative to control; assay type: functional
# [17] = test system: Mus musculus; assay: Antiinflammatory activity in carrageenan-induced Kunming mouse model of paw edema assessed as edema inhibition at 30 mg/kg, ip pretreated for 1 hr followed by carrageenan administration and measured after 5 hrs relative to control; assay type: functional; details: time 6 hrs
# [18] = test system: Mus musculus; assay: Antiinflammatory activity in carrageenan-induced Kunming mouse model of paw edema assessed as paw volume at 1 mg/kg, ip pretreated for 1 hr followed by carrageenan administration and measured immediately by digital plethysmometer (reference value: 0.116 +/- 0.042 mL); assay type: functional
# [19] = test system: Mus musculus; assay: Antiinflammatory activity in carrageenan-induced Kunming mouse model of paw edema assessed as paw volume at 30 mg/kg, ip pretreated for 1 hr followed by carrageenan administration and measured immediately by digital plethysmometer (reference value: 0.116 +/- 0.042 mL); assay type: functional
# [20] = test system: Mus musculus; assay: Antiinflammatory activity in carrageenan-induced Kunming mouse model of paw edema assessed as paw volume at 30 mg/kg, ip pretreated for 1 hr followed by carrageenan administration and measured after 1 hr by digital plethysmometer (reference value: 0.395 +/- 0.017 mL); assay type: functional; details: time 2 hrs
# [21] = test system: RAW264.7; assay: Effect on HO-1 protein expression in mouse RAW264.7 cells at 0.5 to 2 uM incubated for 24 hrs by Western blot analysis; assay type: functional, cell-based; details: dose 0.5-2 µM
# [22] = test system: Mus musculus; assay: Antiinflammatory activity in carrageenan-induced Kunming mouse model of paw edema assessed as paw volume at 30 mg/kg, IG pretreated for 1 hr followed by carrageenan administration and measured after 3 hrs by digital plethysmometer (reference value: 0.365 +/- 0.044 mL); assay type: functional; details: time 4 hrs
# [23] = test system: Mus musculus; assay: Antiinflammatory activity in carrageenan-induced Kunming mouse model of paw edema assessed as edema inhibition at 30 mg/kg, IG pretreated for 1 hr followed by carrageenan administration and measured after 1 hr relative to control; assay type: functional; details: po, time 2 hrs
# [24] = test system: Mus musculus; assay: Antiinflammatory activity in carrageenan-induced Kunming mouse model of paw edema assessed as edema inhibition at 30 mg/kg, IG pretreated for 1 hr followed by carrageenan administration and measured after 3 hrs relative to control; assay type: functional; details: po, time 4 hrs
# [25] = test system: Mus musculus; assay: Antiinflammatory activity in carrageenan-induced Kunming mouse model of paw edema assessed as edema inhibition at 10 mg/kg, ip pretreated for 1 hr followed by carrageenan administration and measured after 1 hr relative to control; assay type: functional; details: time 2 hrs
# [26] = test system: Mus musculus; assay: Antioxidant activity in carrageenan-induced Kunming mouse model of paw edema assessed as reduction in MDA level in paw tissue at 1 to 30 mg/kg, ip pretreated for 1 hr followed by carrageenan administration and measured after 5 hrs by ELISA; assay type: functional, organism-based; details: dose 1-30 mg/kg, time 6.0 hrs
# [27] = test system: Mus musculus; assay: Antiinflammatory activity in carrageenan-induced Kunming mouse model of paw edema assessed as edema inhibition at 30 mg/kg, ip pretreated for 1 hr followed by carrageenan administration and measured after 3 hrs relative to control; assay type: functional; details: time 4 hrs
# [28] = test system: Mus musculus; assay: Antiinflammatory activity in carrageenan-induced Kunming mouse model of paw edema assessed as paw volume at 30 mg/kg, IG pretreated for 1 hr followed by carrageenan administration and measured after 5 hrs by digital plethysmometer (reference value: 0.353 +/- 0.024 mL); assay type: functional; details: time 6 hrs
# [29] = test system: Mus musculus; assay: Antioxidant activity in carrageenan-induced Kunming mouse model of paw edema assessed as increase in SOD activity in paw tissue at 1 to 30 mg/kg, ip pretreated for 1 hr followed by carrageenan administration and measured after 5 hrs by ELISA; assay type: functional, organism-based; details: dose 1-30 mg/kg, time 6.0 hrs
# [30] = test system: Mus musculus; assay: Antiinflammatory activity in carrageenan-induced Kunming mouse model of paw edema assessed as edema inhibition at 30 mg/kg, ip pretreated for 1 hr followed by carrageenan administration and measured after 1 hr relative to control; assay type: functional; details: time 2 hrs
smiles,measurement,setting,value
O=C(/C=C/c1ccc(O)c(O)c1)NCCCN1CCc2cc(Cl)ccc21,inhibition,[1],Active
same,inhibition,[2],Active
same,Activity,[3],inactive
same,inhibition in vivo at 1 mg/kg,[4],45.1%
same,Activity,[5],Active
same,Activity,[6],Dose-Dependent Effect
same,IC50,"[6]; RAW264.7, 24 h",1520 nM
same,inhibition,[7],Active
same,Activity,[8],Dose-Dependent Effect
same,Activity,[9],~100%
same,"viability at 24 h, 10 µM",[10],> 85%
same,Activity,[11],0.267 mL
same,inhibition in vivo at 1 mg/kg,[12],27.6%
same,inhibition at 1 µM,[13],~100%
same,inhibition in vivo at 10 mg/kg,[14],86.6%
same,inhibition,[15],Active
same,inhibition at 2 µM,[16],50%
same,inhibition in vivo at 30 mg/kg,[17],94.1%
same,Activity,[18],0.131 mL
same,Activity,[19],0.131 mL
same,Activity,[20],0.158 mL
same,Activity,[21],inactive
same,Activity,[22],0.243 mL
same,inhibition in vivo at 30 mg/kg,[23],24.6%
same,inhibition in vivo at 30 mg/kg,[24],50%
same,inhibition in vivo at 10 mg/kg,[25],75.7%
same,Activity,[26],Active
same,inhibition in vivo at 30 mg/kg,[27],95.9%
same,Activity,[28],0.227 mL
same,Activity,[29],Active
same,inhibition in vivo at 30 mg/kg,[30],87.1%

# — ChEMBL document CHEMBL5537118, “Synthesis of cinnamoyl tethered indoline derivatives with anti-inflammatory and antioxidant activities” (Eur J Med Chem, 2024)
